System: endogenous KDMs
Experiment: H3K9me3 immunofluorescent staining in vector-transfected HEK293T cells (FIG. 10B)
Type: cell-based
Details: DMOG 1 mM 24 hrs

COC(=O)CNC(=O)C(=O)OC [DMOG, dimethyloxalylglycine]
H3K9me3 methylation in cells expressing vector: increased H3K9me3 methylation

Reference: patent US20130267594A1, “PROLYL HYDROXYLASE INHIBITORS AS RADIATION MITIGATORS AND RADIATION PROTECTORS” (priority 2010, published 2013)
